From ChEMBL document CHEMBL3044989, “Structurecytotoxicity relationship of a novel series of miconazole-like compounds” (Med Chem Res, 2012)
The source made the active and inactive calls. The calls are words filed in the database; no cut-off is given here.

Legend:
Escherichia coli = assay: Antimicrobial activity against Escherichia coli (DH5alpha) after 16 hr by spectrophotometry; format: functional, organism-based; conditions: DH5[alpha]
K562 = assay: Cytotoxicity against Homo sapiens (human) K562 cells at 20 to 80 uM after 24 hr by MTT assay; format: functional, cell-based

Structure (SMILES) | IC50 (Escherichia coli) [µM] | Activity (K562)
c1ccc(N/N=C(/Cn2ccnc2-c2ccccc2)c2ccccc2)cc1 | 16.8 | –
c1ccc(N/N=C(/Cn2ccnc2)c2ccccc2)cc1 | 7.6 | –
c1ccc(N/N=C(/Cn2cnc3ccccc32)c2ccccc2)cc1 | 12.3 | –
COc1ccc(/C(Cn2cnc3ccccc32)=N\Nc2ccccc2)cc1 | 13.7 | –
c1ccc(N/N=C(/Cn2nnc3ccccc32)c2ccccc2)cc1 | 3.4 | Active
COc1ccc(/C(Cn2ccc(=O)[nH]c2=O)=N\Nc2ccccc2)cc1 | 6.2 | –

More lines, main results first:

IC50 (Escherichia coli) [µM] | Structure (SMILES) | Activity (K562)
7.1 | Cc1cn(C/C(=N/Nc2ccccc2)c2ccccc2)c(=O)[nH]c1=O | –
14.6 | O=c1cnn(C/C(=N/Nc2ccccc2)c2ccccc2)c(=O)[nH]1 | Active
4.8 | O=c1[nH]c(=O)n(C/C(=N/Nc2ccccc2)c2ccccc2)cc1Cl | –
57.3 | O=c1ccn(C/C(=N/Nc2ccccc2)c2ccccc2)c(=O)[nH]1 | –
3.1 | O=C1CNC(=O)N1C/C(=N/Nc1ccccc1)c1ccccc1 | Active
